System: 857933-349-R-J2-PDC complex spheroids, viability
Assay: Anticancer human tumor 857933-349-R-J2-PDC patient-derived colon adenocarcinoma cell line growth inhibition [GQUAD]
Settings: for IC50: curve of first compound; for viability, T/C: stronger effect = lower value
Description: DNA G-quadruplex Stabilizer Agents in Combinations in Complex Spheroids
A high-throughput screen of multi-cell type tumor spheroids was designed to identify active combinations of DNA G-quadruplex stabilizer agents and targeted small molecules. Complex spheroids include a stromal component modeled by human endothelial cells (HUVEC) and fibroblasts modeled by human mesenchymal stem cells (MSCs). The concentration ranges selected for each drug and investigational agent were based upon clinically achievable concentrations if the clinical Cmax of the agent was known.
Compounds. The drugs and investigational agents: pidnarulex (CX-5461; NSC782164), APTO-253 (NSC789042), BRACO-19 (NSC847499), peposertib (NSC802822), ceralasertib (NSC780249), elimusertib (NSC800525), camonsertib (NSC841442), AZD-1390 (NSC803789), olaparib (NSC753686), talazoparib (NSC767125), ART-558 (NSC835418), sotorasib (NSC818433), MRTX-1133 (NSC836407), SN-38 (NSC673596), topotecan (NSC609699), etoposide (NSC141540), doxorubicin (NSC123127), gemcitabine (NSC613327), 5-fluorouracil (NSC19893), paclitaxel (NSC125973), vemurafenib (NSC761431), panobinostat (NSC761190), R-306465 (JNJ-16241199; NSC773264), adavosertib (NSC754352), TP-3654 (NSC805149), carboplatin (NSC241240), KSQ-4279 (NSC840948), and staurosporine (NSC755774) were obtained from the National Cancer Institute (NCI) Developmental Therapeutics Program Chemical Repository (34). The FDA-approved anticancer drug set is available from the NCI Developmental Therapeutics Program. […] The stock solutions were prepared in dimethyl sulfoxide (DMSO, Sigma-Aldrich, St. Louis, MO, cat. D2650) at 800-fold the tested concentration and stored at -70 degrees C prior to their use. All drugs and investigational agents were tested over a range starting from a high concentration at or near the clinical Cmax and decreasing in half-log increments. If the clinical Cmax for an agent had not been determined, the highest concentration tested was 10 microM.
2.3 Cell Culture. All cells were maintained in an incubator at 37 degrees C and 5% CO2 with 95% humidity. The PDC lines were cultured according to standard operating procedures established by the NCI PDMR. All PDCs were thawed and cultured in Matrigel-coated flasks prepared with a working solution of 1X Ham's F-12 nutrient mix, without supplementation (Invitrogen, cat. 11765054), 100 U/mL penicillin-streptomycin (Invitrogen, cat. 15140122), and 2.5% Matrigel (Corning Inc., cat. 354248) for the first three passages. The 857933-349-R-J2-PDC line was cultured in 6C/Colon 1B media, which includes advanced DMEM/F-12 (Thermo Fisher Scientific, cat. 12634028), 10 mM HEPES (Thermo Fisher Scientific, cat. 15630080), 1X GlutaMAX supplement (Thermo Fisher Scientific, cat. 35050061), 0.1 mg/mL primocin (InvivoGen, cat. ant-pm-2), 10% defined fetal bovine serum, heat inactivated (HyClone Laboratories Inc., cat. SH30070.03HI), 50% L-WRN conditioned media (ATCC, cat. CRL-3276), 1.25 mM N-Acetyl-L-cysteine (Sigma-Aldrich, cat. A9165), 10 mM nicotinamide (Sigma-Aldrich, cat. N0636), 1X B-27 supplement (Thermo Fisher Scientific, cat. 17504044), 1X N-2 supplement (Thermo Fisher Scientific, cat. 17502048), 10 microM Y-27632 dihydrochloride (Tocris Bioscience, cat. 1254), and 50 ng/mL human EGF recombinant protein (Thermo Fisher Scientific, cat. PHG0311). The 485176-168-R4-J1-PDC line was cultured in Panc media, which includes all 6C/Colon 1B media components plus 100 ng/mL human FGF-10 (Thermo Fisher Scientific, cat. 100-26), 500 nM SB-431542 (Selleckchem, cat. S1067), and gastrin (Tocris, cat. 3006).
[…]

[1] = second compound 0.0316 µM, first compound 0.0316 µM
[2] = second compound 0.0316 µM, first compound 0.1 µM
[3] = second compound 0.0316 µM, first compound 0.316 µM
[4] = second compound 0.0316 µM, first compound 1 µM
[5] = second compound 0.0316 µM, first compound 3.16 µM
[6] = second compound 0.0316 µM, first compound 10 µM
[7] = second compound 0.1 µM, first compound 0.0316 µM
[8] = second compound 0.1 µM, first compound 0.1 µM
[9] = second compound 0.1 µM, first compound 0.316 µM
[10] = second compound 0.1 µM, first compound 1 µM
[11] = second compound 0.1 µM, first compound 3.16 µM
[12] = second compound 0.1 µM, first compound 10 µM
[13] = second compound 0.316 µM, first compound 0.0316 µM
[14] = second compound 0.316 µM, first compound 0.1 µM
[15] = second compound 0.316 µM, first compound 0.316 µM
[16] = second compound 0.316 µM, first compound 1 µM
[17] = second compound 0.316 µM, first compound 3.16 µM
[18] = second compound 0.316 µM, first compound 10 µM
[19] = second compound 1 µM, first compound 0.0316 µM
[20] = second compound 1 µM, first compound 0.1 µM
[21] = second compound 1 µM, first compound 0.316 µM
[22] = second compound 1 µM, first compound 1 µM
[23] = second compound 1 µM, first compound 3.16 µM
[24] = second compound 1 µM, first compound 10 µM
[25] = second compound 3.16 µM, first compound 0.0316 µM
[26] = second compound 3.16 µM, first compound 0.1 µM
[27] = second compound 3.16 µM, first compound 0.316 µM
[28] = second compound 3.16 µM, first compound 1 µM
[29] = second compound 3.16 µM, first compound 3.16 µM
[30] = second compound 3.16 µM, first compound 10 µM
[31] = second compound 10 µM, first compound 0.0316 µM
[32] = second compound 10 µM, first compound 0.1 µM
[33] = second compound 10 µM, first compound 0.316 µM
[34] = second compound 10 µM, first compound 1 µM
[35] = second compound 10 µM, first compound 3.16 µM
[36] = second compound 10 µM, first compound 10 µM
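Further: spheroids exposed to compounds for one week before readout.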
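Wherever viability, T/C is given: percent viability relative to vehicle DMSO wells taken as 100%.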

Nc1ccn(C2OC(CO)C(O)C2(F)F)c(=O)n1 (centres undefined) + Cc1[nH]c2ccc(F)cc2c1-c1nc2c3cccnc3c3ncccc3c2[nH]1
IC50 (second compound 0.0316 µM): 337 nM
IC50 (second compound 0.1 µM): 153 nM
IC50 (second compound 0.316 µM): 339 nM
IC50 (second compound 1 µM): 169 nM
IC50 (second compound 3.16 µM): 270 nM
IC50 (second compound 10 µM): 255 nM
viability, T/C [1]: 73.6%
viability, T/C [2]: 50.7%
viability, T/C [3]: 53%
viability, T/C [4]: 12.2%
viability, T/C [5]: 8.63%
viability, T/C [6]: 7.04%
viability, T/C [7]: 81.9%
viability, T/C [8]: 55.6%
viability, T/C [9]: 40.1%
viability, T/C [10]: 13.4%
viability, T/C [11]: 8.84%
viability, T/C [12]: 6.64%
viability, T/C [13]: 71.9%
viability, T/C [14]: 54.7%
viability, T/C [15]: 53.2%
viability, T/C [16]: 12%
viability, T/C [17]: 7.77%
viability, T/C [18]: 6.81%
viability, T/C [19]: 76.5%
viability, T/C [20]: 54.2%
viability, T/C [21]: 45.2%
viability, T/C [22]: 10.6%
viability, T/C [23]: 8.22%
viability, T/C [24]: 6.71%
viability, T/C [25]: 74.5%
viability, T/C [26]: 53.2%
viability, T/C [27]: 50.2%
viability, T/C [28]: 11.6%
viability, T/C [29]: 8.23%
viability, T/C [30]: 7.07%
viability, T/C [31]: 73%
viability, T/C [32]: 47.9%
viability, T/C [33]: 48.8%
viability, T/C [34]: 10.1%
viability, T/C [35]: 7.69%
viability, T/C [36]: 8.66%

COc1cc(C2c3cc4c(cc3C(OC3OC5COC(C)OC5C(O)C3O)C3COC(=O)C23)OCO4)cc(OC)c1O (centres undefined) + Cc1[nH]c2ccc(F)cc2c1-c1nc2c3cccnc3c3ncccc3c2[nH]1
IC50 (second compound 0.0316 µM): 935 nM
IC50 (second compound 0.1 µM): 962 nM
IC50 (second compound 0.316 µM): 1030 nM
IC50 (second compound 1 µM): 1410 nM
IC50 (second compound 3.16 µM): 964 nM
IC50 (second compound 10 µM): 980 nM
viability, T/C [1]: 84.8%
viability, T/C [2]: 62.7%
viability, T/C [3]: 58%
viability, T/C [4]: 53.8%
viability, T/C [5]: 42.1%
viability, T/C [6]: 24.6%
viability, T/C [7]: 86.5%
viability, T/C [8]: 73.6%
viability, T/C [9]: 50.9%
viability, T/C [10]: 59.4%
viability, T/C [11]: 38.8%
viability, T/C [12]: 24.9%
viability, T/C [13]: 88.9%
viability, T/C [14]: 69.8%
viability, T/C [15]: 55.9%
viability, T/C [16]: 59%
viability, T/C [17]: 38.9%
viability, T/C [18]: 25.4%
viability, T/C [19]: 81.4%
viability, T/C [20]: 71.8%
viability, T/C [21]: 50.7%
viability, T/C [22]: 63.1%
viability, T/C [23]: 44.6%
viability, T/C [24]: 23.5%
viability, T/C [25]: 94.9%
viability, T/C [26]: 65.3%
viability, T/C [27]: 47.6%
viability, T/C [28]: 56.2%
viability, T/C [29]: 45.4%
viability, T/C [30]: 24%
viability, T/C [31]: 90.7%
viability, T/C [32]: 69.5%
viability, T/C [33]: 49.8%
viability, T/C [34]: 56.5%
viability, T/C [35]: 50.7%
viability, T/C [36]: 27.7%
